Results from PubChem BioAssay (NCI).
Values joined by “and” are separate entries in the source; they are usually repeats but may differ in a detail not shown here. Equal entries are not always repeated.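 1) Cells in 96-well plates. 2) Compound, 48 h, 5 concentrations. 3) Linear interpolation between surrounding doses. 4) Unreached endpoint = highest concentration. Abbreviation: GI50, concentration required for 50% inhibition of growth. TGI denotes the concentration required for complete inhibition of growth.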

What was measured:
Experiment in all cases: NCI anticancer screen, dose series, 48 h
EKVX NSCLC = tested on: EKVX NSCLC
SK-MEL-28 melanoma = tested on: SK-MEL-28 melanoma
TK-10 renal = tested on: TK-10 renal
NCI-H226 lung = tested on: NCI-H226 lung
MOLT-4 leukemia = tested on: MOLT-4 leukemia
HOP-62 NSCLC = tested on: HOP-62 NSCLC
MDA-MB-231 breast = tested on: MDA-MB-231 breast
M14 melanoma = tested on: M14 melanoma
SN12C renal = tested on: SN12C renal
HCC-2998 colon = tested on: HCC-2998 colon

| SMILES | TGI (EKVX NSCLC) | TGI (SK-MEL-28 melanoma) | TGI (TK-10 renal) [µM] | TGI (NCI-H226 lung) | TGI (MOLT-4 leukemia) [µM] | TGI (HOP-62 NSCLC) [µM] | TGI (MDA-MB-231 breast) [µM] | TGI (M14 melanoma) | TGI (SN12C renal) | GI50 (SK-MEL-28 melanoma) [µM] | GI50 (TK-10 renal) [µM] | GI50 (NCI-H226 lung) [µM] | GI50 (MOLT-4 leukemia) [µM] | GI50 (HOP-62 NSCLC) [µM] | GI50 (MDA-MB-231 breast) [µM] | GI50 (HCC-2998 colon) [µM] | TGI (HCC-2998 colon) [µM] | GI50 (M14 melanoma) [µM] | GI50 (SN12C renal) [µM] | GI50 (EKVX NSCLC) [nM] |
| --- | --- | --- | --- | --- | --- | --- | --- | --- | --- | --- | --- | --- | --- | --- | --- | --- | --- | --- | --- | --- |
| NC(=O)N/N=C1/CCC(O)CC1CC(=O)O (centres undefined) | > 100 µM | > 100 µM | > 100 | > 100 µM | > 100 | > 100 | > 100 | > 100 µM | > 100 µM | – | – | – | – | – | – | – | – | – | – | – |
| Cn1ncnc1[C@H]1c2n[nH]c(=O)c3cc(F)cc(c23)N[C@@H]1c1ccc(F)cc1 | – | > 100 µM | > 100 | > 100 µM | > 100 | > 100 | > 100 | > 100 µM | > 100 µM | > 100 | > 100 | > 100 | 5.07 | 5.81 | > 100 | > 100 | > 100 | 4.19 | 3.26 | – |
| O=C1CCCCCCCCCCC1CN1CCCC1 (centres undefined) | – | 55.6 µM | > 100 | > 100 µM | > 100 | 34.7 | > 100 | 47.2 µM | > 100 µM | – | – | – | – | – | – | – | 70.6 | – | – | – |
| Cc1ccc(S(=O)(=O)c2c(COC(=O)c3cccc(C)c3)c(-c3ccccc3)nn2C)cc1 | – | > 100 µM | > 100 | > 100 µM | > 100 | > 100 | > 100 | > 100 µM | > 100 µM | > 100 | > 100 | > 100 | > 100 | > 100 | > 100 | > 100 | > 100 | > 100 | > 100 | – |
| Cc1ccccc1C1OC(=O)c2ccc3ccccc3c21 (centres undefined) | 17.5 µM | 10.1 µM | > 31.6 | 12.2 µM | 7.18 | 5.35 | – | 10.9 µM | 18.3 µM | – | – | – | – | – | – | – | 12 | – | – | – |
| CCCCCCCCCCCCCCCC(=O)OCC1OC(n2cc(F)c(=O)[nH]c2=O)C(N)C(O)C1O (centres undefined) | 35.6 µM | 31.1 µM | 46.5 | 35.9 µM | 40.7 | 37.4 | – | 32.8 µM | 32.4 µM | – | – | – | – | – | – | – | 27.8 | – | – | – |
| CC1(C)C2CCC13C(=O)C1OC3(C2)C2C(=O)c3ccccc3C(=O)C12 (centres undefined) | – | > 100 µM | > 100 | > 100 µM | > 100 | > 100 | 7.98 | > 100 µM | > 100 µM | > 100 | > 100 | > 100 | > 100 | > 100 | 2.44 | > 100 | > 100 | > 100 | > 100 | – |
| O=C(C/C(=N/O)C(=O)NC1=C(Cl)C(=O)c2ccccc2C1=O)CC(c1ccccc1)c1c(O)c2ccccc2oc1=O (centres undefined) | 42.3 µM | > 100 µM | – | 20.3 µM | > 100 | – | 26.5 | 18.6 µM | 23.5 µM | – | – | – | – | – | – | – | 25.6 | – | – | – |
| C[C@@]12CCC(=O)c3coc(c31)C(=O)c1cc3c(cc12)C(=O)C=CC3=O | > 1 µM and 48.6 µM | > 1 µM and 29.9 µM | > 61 | > 1 µM and 86 µM | > 100 | > 100 | – | > 1 µM and 27.6 µM | > 1 µM and 30.7 µM | > 1 | > 1 | > 1 | > 1 | > 1 | – | > 1 | > 100 | > 1 | > 1 | > 1000 |
| COc1ccc2c(c1)C(=O)c1ccc(OC)cc1C2=S | > 100 µM | > 100 µM | > 100 | > 100 µM | > 100 | > 100 | – | > 100 µM | > 100 µM | – | – | – | – | – | – | – | > 100 | – | – | – |
| CC(C)CCCC(C)[C@H]1CCC2[C@@H]3CCC4Cc5nc6c(nc5C[C@]4(C)C3CC[C@@]21C)CC1CC[C@@H]2C(CC[C@@]3(C)C2CC[C@@H]3C(C)CCCC(C)C)[C@@]1(C)C6 (some centres undefined) | > 100 µM | > 100 µM | > 100 | > 100 µM | > 100 | > 100 | > 100 | > 100 µM | > 100 µM | – | – | – | – | – | – | – | – | – | – | – |
| OC1(C23CC4CC(CC(C4)C2)C3)CSCC1(O)C12CC3CC(CC(C3)C1)C2 (centres undefined) | > 100 µM | > 100 µM | > 100 | > 100 µM | > 10 | > 100 | – | > 100 µM | > 100 µM | – | – | – | – | – | – | – | > 100 | – | – | – |
| C[C@H](OCc1ccccc1)C(=O)N1CCS(=O)(=O)N2CCC[C@@H]2C1=O | > 100 µM | > 100 µM | > 100 | > 100 µM | > 100 | > 100 | – | > 100 µM | > 100 µM | – | – | – | – | – | – | – | > 100 | – | – | – |
| C=CCN=C(N/N=C/c1ccc([N+](=O)[O-])o1)NS(=O)(=O)c1cc(C(=O)Nc2ccc(Cl)cc2)c(Cl)cc1SC | 6.58 µM | > 100 µM | > 100 | > 100 µM | > 39.5 | 7.32 | – | > 21.6 µM | > 100 µM | 25.9 | > 90.8 | 13.5 | – | 1.8 | – | 2.29 | 5.96 | 3.09 | 2.63 | 2630 |
